Results published in ChEMBL document CHEMBL1201862, “PubChem BioAssay data set” (2004).
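In this assay, cells in 96-well plates receive the compound at five concentrations for 48 hours. Endpoints are linearly interpolated between the surrounding concentrations. At the GI50, growth is halved.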 The source made the active and inactive calls. Rule as the data show it: active = GI50 up to about 1.1 µM and inactive = higher.

Key:
Experiment in all cases: NCI tumour cell line growth inhibition, 48 h
A549 = system: A549
ACHN = system: ACHN
CCRF-CEM = system: CCRF-CEM
DMS-114 = system: DMS-114
HCT-116 = system: HCT-116
HCT-15 = system: HCT-15
HOP-62 = system: HOP-62
HOP-92 = system: HOP-92
IGROV-1 = system: IGROV-1
KM12 = system: KM12
M14 = system: M14
NCI-H23 = system: NCI-H23
OVCAR-4 = system: OVCAR-4
RPMI-8226 = system: RPMI-8226
SK-MEL-5 = system: SK-MEL-5
SN12C = system: SN12C
SW-620 = system: SW-620
UACC-62 = system: UACC-62
MDA-MB-231 = system: MDA-MB-231
MDA-MB-435 = system: MDA-MB-435

Row | SMILES | GI50 (A549) | GI50 (ACHN) | GI50 (CCRF-CEM) | GI50 (DMS-114) | GI50 (HCT-116) | GI50 (HCT-15) | GI50 (HOP-62) | GI50 (HOP-92) | GI50 (IGROV-1) | GI50 (KM12) | GI50 (M14) | GI50 (NCI-H23) | GI50 (OVCAR-4) | GI50 (RPMI-8226) | GI50 (SK-MEL-5) | GI50 (SN12C) | GI50 (SW-620) | GI50 (UACC-62) | GI50 (MDA-MB-231) | GI50 (MDA-MB-435)
1 | C[C@@H](N[C@H]1CCC[C@@H]1O)c1ccccc1.C[C@@H](N[C@H]1CCC[C@H]1O)c1ccccc1 | > 100 µM (inactive) | > 100 µM (inactive) | 89.9 µM (inactive) | > 100 µM (inactive) | 34.9 µM (inactive) | > 100 µM | 51.9 µM (inactive) | 30.7 µM (inactive) | > 100 µM (inactive) | 41.4 µM (inactive) | 49 µM (inactive) | > 100 µM (inactive) | > 100 µM (inactive) | 53.7 µM (inactive) | 57.7 µM (inactive) | > 100 µM (inactive) | 61.4 µM (inactive) | 75 µM (inactive) | – | –
2 | COc1cccc(NC(=O)CC(=O)N2N=C(N(CCC#N)c3ccccc3C)CC2c2ccccc2)c1 (stereo unspecified) | > 100 µM (inactive) | > 100 µM (inactive) | > 100 µM (inactive) | > 100 µM (inactive) | > 100 µM (inactive) | > 100 µM | > 100 µM (inactive) | > 100 µM (inactive) | > 100 µM (inactive) | > 100 µM (inactive) | > 100 µM (inactive) | > 100 µM (inactive) | > 100 µM (inactive) | > 100 µM (inactive) | > 100 µM (inactive) | > 100 µM (inactive) | > 100 µM (inactive) | > 100 µM (inactive) | – | –
3 | COc1ccc2c(c1O)C(=O)C(CCC(=O)O)CC2 (stereo unspecified) | > 100 µM (inactive) | > 100 µM (inactive) | > 100 µM (inactive) | > 100 µM (inactive) | > 100 µM (inactive) | > 100 µM | > 100 µM (inactive) | > 100 µM (inactive) | > 100 µM (inactive) | – | > 100 µM (inactive) | > 100 µM (inactive) | > 100 µM (inactive) | > 100 µM (inactive) | > 100 µM (inactive) | > 100 µM (inactive) | > 100 µM (inactive) | > 100 µM (inactive) | – | –
4 | CC(=O)OCC1=C(C(=O)O)C(c2ccc3c(c2)OCO3)c2cc3c(cc2O1)OCO3 (stereo unspecified) | > 100 µM (inactive) | > 100 µM (inactive) | > 100 µM (inactive) | > 100 µM (inactive) | > 100 µM (inactive) | > 100 µM | > 100 µM (inactive) | 70.1 µM (inactive) | > 100 µM (inactive) | – | > 100 µM (inactive) | > 100 µM (inactive) | > 100 µM (inactive) | > 100 µM (inactive) | > 100 µM (inactive) | > 100 µM (inactive) | > 100 µM (inactive) | > 100 µM (inactive) | – | –
5 | CCNC(=O)CCN(C(=O)O)S(=O)(=O)c1ccc(NC(=O)c2ccccc2)cc1 | > 100 µM (inactive) | > 100 µM (inactive) | 59.4 µM (inactive) | > 100 µM (inactive) | 35.6 µM (inactive) | > 100 µM | > 100 µM (inactive) | > 100 µM (inactive) | > 100 µM (inactive) | > 100 µM (inactive) | > 100 µM (inactive) | > 100 µM (inactive) | > 100 µM (inactive) | > 100 µM (inactive) | > 100 µM (inactive) | > 100 µM (inactive) | 15.5 µM (inactive) | > 100 µM (inactive) | – | –
6 | COc1ccc2c(c1)c1c(C)c3cnccc3c(C)c1n2CCCN | 0.296 µM (active) | 0.124 µM (active) | – | 0.273 µM (active) | 0.0556 µM (active) | 0.0925 µM | 0.444 µM (active) | 0.0968 µM (active) | 0.313 µM (active) | – | 0.145 µM (active) | 0.216 µM (active) | 0.0541 µM (active) | – | 0.383 µM (active) | 0.234 µM (active) | 0.0466 µM (active) | 0.41 µM (active) | 0.145 µM (active) | 0.0502 µM (active)
7 | COC(=O)C1=C(O)c2cc(OC)c(OC)c(OC)c2[C@H](c2cc(OC)c(OC)c(OC)c2)C1C(=O)OC (stereo partly specified) | 49.8 µM (inactive) | 46.8 µM (inactive) | 32.8 µM (inactive) | 30.6 µM (inactive) | 37.6 µM (inactive) | 28.8 µM | 59.8 µM (inactive) | 9.89 µM (inactive) | 36.2 µM (inactive) | 21.9 µM (inactive) | 26 µM (inactive) | 31.2 µM (inactive) | 32.6 µM (inactive) | 28.2 µM (inactive) | 12.3 µM (inactive) | 50.8 µM (inactive) | 29 µM (inactive) | 14 µM (inactive) | – | –
8 | COC1(OC)C2(Cl)C(Cl)=C(Cl)C1(Cl)C1C=CC=CC12 (stereo unspecified) | 69 µM (inactive) | > 100 µM (inactive) | > 10 µM (inactive) | 42.4 µM (inactive) | 43.5 µM (inactive) | 54.5 µM | > 100 µM (inactive) | 40.2 µM (inactive) | > 100 µM (inactive) | > 100 µM (inactive) | 57.5 µM (inactive) | > 100 µM (inactive) | > 100 µM (inactive) | 39.7 µM (inactive) | 53.2 µM (inactive) | 75.3 µM (inactive) | 95.9 µM (inactive) | 73.5 µM (inactive) | – | –
9 | O=C(c1cccs1)N(C(=S)N1CCN(c2ccccc2)CC1)C1CCCCC1 | > 100 µM (inactive) | > 100 µM (inactive) | > 100 µM (inactive) | 58.2 µM (inactive) | > 100 µM (inactive) | > 100 µM | > 100 µM (inactive) | > 100 µM (inactive) | > 100 µM (inactive) | > 100 µM (inactive) | > 100 µM (inactive) | > 100 µM (inactive) | > 100 µM (inactive) | > 100 µM (inactive) | > 100 µM (inactive) | > 100 µM (inactive) | > 100 µM (inactive) | > 100 µM (inactive) | – | –
10 | CCCc1ccc(NCc2cc(OC)c(OC)c(OC)c2)cc1 | 41.8 µM (inactive) | 30.6 µM (inactive) | 17.8 µM (inactive) | 15.6 µM (inactive) | 24.7 µM (inactive) | 17.7 µM | 34.1 µM (inactive) | 22.9 µM (inactive) | 24.4 µM (inactive) | 23.1 µM (inactive) | – | 22 µM (inactive) | 32.4 µM (inactive) | 12.7 µM (inactive) | 15.5 µM (inactive) | 22.3 µM (inactive) | – | 26.9 µM (inactive) | – | –
11 | COc1ccc(C[C@H](N)C(=O)N2C[C@@H](CO)C[C@@H](n3ccc(=O)[nH]c3=O)C2)cc1 | > 100 µM (inactive) | > 100 µM (inactive) | > 100 µM (inactive) | > 100 µM (inactive) | > 100 µM (inactive) | > 100 µM | > 100 µM (inactive) | > 100 µM (inactive) | > 100 µM (inactive) | > 100 µM (inactive) | > 100 µM (inactive) | > 100 µM (inactive) | > 100 µM (inactive) | > 100 µM (inactive) | > 100 µM (inactive) | > 100 µM (inactive) | > 100 µM (inactive) | > 100 µM (inactive) | – | –
12 | COc1ccc2oc(-c3ccncc3)cc(=O)c2c1 | – | > 100 µM (inactive) | 81.1 µM (inactive) | > 100 µM (inactive) | > 100 µM (inactive) | > 100 µM | > 100 µM (inactive) | 37.5 µM (inactive) | 82 µM (inactive) | 84.5 µM (inactive) | > 100 µM (inactive) | > 100 µM (inactive) | > 100 µM (inactive) | > 100 µM (inactive) | – | 38.7 µM (inactive) | – | 65.2 µM (inactive) | – | –
13 | N#Cc1ccc(/C=C(/C(=O)c2ccccc2)c2ccccc2)cc1 | 16.9 µM (inactive) | 15.5 µM (inactive) | 3.19 µM (inactive) | 12.9 µM (inactive) | 4.18 µM (inactive) | 12.2 µM | 17.9 µM (inactive) | 14 µM (inactive) | 23.7 µM (inactive) | 3.24 µM (inactive) | 13.3 µM (inactive) | 15.7 µM (inactive) | 10.2 µM (inactive) | 2.59 µM (inactive) | 12.8 µM (inactive) | 9.66 µM (inactive) | 2.64 µM (inactive) | 7.48 µM (inactive) | – | –
14 | C[C@]12C/C(=C/O)C(=O)C(O)=C1CC[C@@H]1C2CC[C@@]2(C)C1CC[C@@H]2O (stereo partly specified) | 57.8 µM (inactive) | 27.8 µM (inactive) | 18.4 µM (inactive) | 18.2 µM (inactive) | – | 21.5 µM | 46.7 µM (inactive) | 23.1 µM (inactive) | 21.7 µM (inactive) | 25.6 µM (inactive) | 17.9 µM (inactive) | 17.4 µM (inactive) | 23.9 µM (inactive) | 17.6 µM (inactive) | 20.2 µM (inactive) | 25.9 µM (inactive) | 37 µM (inactive) | 16.5 µM (inactive) | – | –
15 | O=c1c(C(c2ccc(Cl)cc2)c2c(O)c3ccccc3n(-c3ccccc3)c2=O)c(O)c2ccccc2n1-c1ccccc1 | 15.2 µM (inactive) | 7.67 µM (inactive) | 18.7 µM (inactive) | 28.7 µM (inactive) | 24.8 µM (inactive) | 15.2 µM | 28 µM (inactive) | 16.7 µM (inactive) | > 100 µM (inactive) | 68.4 µM (inactive) | – | 11.1 µM (inactive) | 32.1 µM (inactive) | 14.6 µM (inactive) | 28.7 µM (inactive) | 19.1 µM (inactive) | 34 µM (inactive) | 13.3 µM (inactive) | – | –
16 | Cc1ccc(C(C)(C)C[P+](C)(c2ccccc2)c2ccccc2)cc1 | 11.6 µM (inactive) | – | 9.08 µM (inactive) | 5.25 µM (inactive) | 6.56 µM (inactive) | 99.3 µM | 18.4 µM (inactive) | 1.97 µM (inactive) | 5.28 µM (inactive) | 4.71 µM (inactive) | – | 11.7 µM (inactive) | 9.18 µM (inactive) | 1.41 µM (inactive) | 3.42 µM (inactive) | 20.4 µM (inactive) | 17.4 µM (inactive) | 5.38 µM (inactive) | – | –
